{"source": "patent US20240118263A1", "about": "“TARGET FOR SCREENING ANTI-TUMOR DRUG, USE THEREOF AND SCREENING METHOD THEREFOR” (SHENYANG FUYANG PHARMACEUTICAL TECHNOLOGY CO., LTD., priority 2019, published 2024)", "key": {"[1]": {"tested_on": "LN229-luc intracranial tumor", "test": "Intracranial LN229-luc glioblastoma xenograft mouse model", "format": "in vivo, NSG mice", "conditions": "ISP I 66 mg/kg intraperitoneally daily, vs control group", "source_text": "The inventors first assessed ISP I's anti-tumor activity in an intracranial mouse model (FIG. 13A). NSG mice were inoculated with 1×10^5 LN229-luc cells in the right-frontal cortex. After 7 days, intracranial tumor growth was confirmed via noninvasive in vivo bioluminescence imaging and mice were randomized into ISP I or DMSO (control) treatment groups.\nMice experiments were approved by the National Institute of Neurological Disorders and Stroke (NINDS) and National Cancer Institute (NCI) Animal Use and Care Committees. For intracranial xenografts establishment, NOD-Prkde^scidIl2rg^tmiWjl (NSG) mice (6-8 weeks old from the NCI-Frederick animal facility) were inoculated intracranially with 100,000 LN229-luc cells suspended in 2 μL Hank's Balanced Salt Solution (HBSS), a product of Crystalgen (Commack, NY USA). After one week, luciferin signals were detected to confirm the survival of tumor cells in mice. The mice were assigned to the indicated groups according to the signal intensity, in order to keep the baseline balanced. ISP I was injected intraperitoneally daily at a dose of 66 mg/kg body weight for 24 days. The mice in control group were injected with the same volume of corn oil or saline. The viability of tumors was monitored every four days. […]"}, "[2]": {"target": "T1, SELH (Homo sapiens (Human), UniProt Q8IZQ5)", "T1 sequence (Q8IZQ5 whole entry)": "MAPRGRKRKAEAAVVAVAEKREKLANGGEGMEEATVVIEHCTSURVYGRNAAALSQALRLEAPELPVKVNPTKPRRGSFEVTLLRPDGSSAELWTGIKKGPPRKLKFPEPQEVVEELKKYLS", "test": "Thermo-stability assay (CETSA) in LN229 and 786-O cell lines", "format": "binding", "conditions": "western blot, vs DMSO", "source_text": "Next, the inventors used a thermo-stability assay to confirm SELH was targeted by ISP I in LN229 and 786-O cell lines. The principle of the assay is based on altered protein thermal stabilization/destabilization due to ligand binding in living cells. […] (FIG. 11B and FIG. 12A). To verify further the specificity of ISP I's targeting of SELH, the inventors designed a surface plasmon resonance assay to assess the interaction of ISP I with SELH synthesized in bacteria.\nCETSA experiments were performed to determine the ISP I-related ligand induced shifts. Intact and live cells in a 10-cm dish were harvested, washed and resuspended in PBS with protease inhibitor cocktail. Protein of the cells was extracted by freeze-thaw more than three times, using liquid nitrogen. The supernatant was centrifuged at 20,000 g for 20 min at 4° C. Then the samples were aliquoted to several groups incubated with different concentrations of ISP I for 1 hour. After that, samples were aliquoted into PCR tubes and thereafter heated at gradient temperature ranging from 40° C. to 80° C. for 3 min. Then the samples were centrifuged again and resolved using 4-12% SDS-PAGE followed by western blot experiments."}, "[3]": {"tested_on": "IOMM xenograft", "test": "IOMM meningioma subcutaneous xenograft model", "format": "in vivo, Nude mice", "conditions": "35 mg/kg intraperitoneally daily, vs control", "experimental": "For subcutaneous xenografts, NSG mice (6-8 weeks old) from the NCI-Frederick animal facility and Jackson Lab (Bar Harbor, ME USA) were injected with 5×10^6 to 1×10^7 cells subcutaneously in the flank. One week later, the tumor-bearing mice were randomly assigned to different groups and made the tumor volume baseline equivalent and treated with normal saline or Zenomycin (35 mg/kg) everyday intraperitoneally. Tumors were measured using a caliper, and volume was calculated."}, "[4]": {"tested_on": "human non-small cell lung cancer cells A549", "quoted_text": "Experimental Materials Human non-small cell lung cancer cells A549, mouse breast cancer cells 4T-1 and mouse melanoma B16-BL6 were purchased from American Type Current Collection (ATCC, Rockville, MD, USA). An RPMI-1640 culture solution containing 10% of fetal calf serum and 2% of glutamine was inoculated with the A549, 4T-1 and B16-BL6 cells, and the cells were incubated at 37° C. in a 5% CO2 incubator.\nThe compounds were dissolved in DMSO under a sterile condition, and the obtained solutions were diluted to required concentrations by using an RPMI 1640 culture solution, wherein the final concentration of the DMSO was less than 0.5%.\nMTT reduction method is used.\nA549, 4T-1 and B16-BL6 were used as adherent cells, adherent tumor cells in a logarithmic phase were selected, digested with pancreatin, and then prepared into a cell suspension of 5×10^4/ml with a culture medium containing 10% of calf serum, a 96-well culture plate was inoculated with the cell suspension, wherein each well contained 100 μl of the cell suspension, and incubation was carried out for 24 h at 37° C. and 5% CO2. Replacing was carried out with a new culture solution containing the samples to be detected of different concentrations in the experimental groups, replacing was carried out with a culture solution containing a same volume of solvent in the control group, three parallel wells were set in each group, and incubation was carried out for 48 hours at 37° C. and 5% CO2. The supernate was discarded, careful washing was carried out with PBS twice, 100 μl of a freshly prepared culture medium containing 0.5 mg/ml of MTT was added into each well, and incubation was continued to be carried out at 37° C. for 4 h. The supernatant was carefully discarded, 150 μl of DMSO was added, uniform mixing was carried out for 10 min by using a micro oscillator, and the optical density value was measured at 492 nm by using a microplate reader.\nTumor cell growth inhibition ratio (%)=[A492 (negative control)−A492 (dosing group)]/A492 (negative control)×100%\nThe median inhibitory concentration (IC50) of the sample is calculated."}, "[5]": {"target": "T1, SELH", "test": "Drug affinity responsive target stability (DARTS) assay in LN229 cells", "format": "binding", "conditions": "LN229 lysate, ISP I 40 μg/mL, mass spectroscopy", "experimental": "(2) To identify ISP I's molecular target, the inventors performed drug affinity responsive target stability (DARTS) assay in LN229 cells.\nThe inventors discovered that the binding of ISP I to its target proteins temporarily locks them into a stable conformational structure, which prevents their recognition by proteases. After evading protease degradation, the identity of ISP I's target proteins was determined using mass spectroscopy.\nDARTS assay data were taken to identify the target of ISP I in vitro. For this assay, the invenots used the protocol published by Lomenick et al., Proc. Nat'l Acad. Sci. USA 106: 21984 (2009). Briefly, LN229 cells were lysed with M-PER (Pierce) supplemented with protease and phosphatase inhibitors. After centrifugation at 14,000 rpm for 15 min, lysates were diluted to the same final volume and protein concentration with M-PER and were dissolved in TNC buffer [50 mM Tris-HCl (pH 8.0), 50 mM NaCl, 10 mM CaCl2]. All steps were performed on ice or at 4° C. to help prevent premature protein degradation. […] Peptides were analyzed by LC/MS/MS on a Thermo LTQ-Orbitrap mass spectrometer with an Eksigent LC pump. For quantitative comparison of protein and peptide abundances, MS spectra were analyzed by means of the differential workflow of Rosetta Elucidator (Rosetta Inpharmatics)."}}, "note": "“Also recorded” adds a separate entry of the source.", "data": [{"smiles": "CO[C@@H]1[C@@H](O[C@@H]2O[C@H](C)[C@@H](O[C@H]3C[C@@](C)(O)[C@@H](OC(=O)CC(C)C)[C@H](C)O3)[C@H](N(C)C)[C@H]2O)[C@@H](CC=O)C[C@@H](C)[C@@H](O[C@H]2CC[C@H](N(C)C)[C@@H](C)O2)/C=C/C=C/C[C@@H](C)OC(=O)C[C@H]1O", "note": "[Isovalerylspiramycin I, 4″-isovalerylspiramycin I]", "values": [{"measurement": "tumor growth by bioluminescence imaging", "setting": "[1]", "result": "significantly reduced tumor growth; also recorded: complete response"}, {"measurement": "thermal protection of SELH", "setting": "[2]", "result": "protective effect of ISP I on SELH was present over a range of increasing temperatures"}, {"measurement": "tumor size and weight, IOMM xenograft", "setting": "[3]", "result": "significantly reduced tumor size and weight"}, {"measurement": "A549 IC50 cytotoxicity", "setting": "[4]", "result": 1.29, "unit": "µg/mL"}, {"measurement": "target protein identified by DARTS", "setting": "[5]", "result": "SELH was the most abundant primary protein"}]}]}
